Where two headings read alike, the source gives them in different places.
Assays:
[1] = target: SHP2^E76A protein (Homo sapiens (Human), UniProt Q06124, E76A); test: SHP2 enzyme activity inhibition experiment; assay type: biochemical
Summary of the method: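 Compounds tested at 10 concentrations in 3-fold serial dilution. IC50 from a four-parameter Hill-slope nonlinear fit of enzyme activity versus concentration.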

[2] = tested on: MOLM-13 cells; test: MOLM-13 cell proliferation experiment; assay type: cell-based; details: Homo sapiens
Method: After 3 days, 5 µL of CellTiter-Glo reagent (Promega, ZG7572) was added to each well, and the plates were kept at room temperature in the dark for 10 minutes. The […] was detected by Spectra max i3 (Molecular Devices). The relative growth rate of the treated cells was compared with that of DMSO control.

[3] = tested on: phosphorylation level of intracellular protein kinase (ERK) in MOLM13 cells; test: Phosphorylated protein kinase (p-ERK) cell experiment (AlphaLISA); assay type: cell-based; details: Homo sapiens, MOLM-13, MOLM13 cells
Method: The inhibitory activities of the compounds on the phosphorylation level of intracellular protein kinase (ERK) were determined by AlphaLISA method.
Firstly, the cells were treated with the compounds. The compounds to be tested were subjected to 3-fold dilution with 100% DMSO, and a total of 9 different concentration gradients were set. MOLM13 cells were then seeded into 96-well plates at a density of 30,000 cells per well in a volume of 100 µL per well. […] of DMSO or the test compounds with different concentrations was then transferred into each well, setting two duplicates for each concentration, and the final concentration of DMSO was controlled at 0.5%.
Secondly, the cells were lysed. After 2 hours of cell treatment, the medium was removed, and the cells were washed 3 times with phosphate buffered saline. 50 µL of freshly prepared lysis buffer was added to each well, and the plates were shaken and kept at room temperature for 10 minutes.
Thirdly, the phosphorylated extracellular signal-regulated kinase (p-ERK) was detected by AlphaLISA@ SureFire® Ultra™ p-ERK 1/2 (Thr202/Tyr204) kit (Perkin Elmer, ALSU-PERK-A10K). 10 µL of the above lysate was transferred to a 384-well plate (Perkin Elmer, 6005350), and the phosphorylation level of the extracellular signal-regulated kinase of the sample was detected according to the product instructions. The signal was read using AlphaScreen detector on Spectra max i3 (Molecular Devices). The percentage of inhibition (%) was calculated by the following formula: Inhibition percentage(%)=(1−p-ERK signal of compound-treated cells/p-ERK signal of DMSO-treated cells)*100

[4] = SHP2 enzyme activity, Tables 1.1 and 1.2, read-out: IC50
[5] = Table 4, read-out: SHP2 enzyme activity IC50
[6] = MOLM-13, 72 h, MOLM-13 cell proliferation, 3 days, Tables 3.1 and 3.2, read-out: IC50
[7] = MOLM-13, read-out: MOLM-13 cell proliferation IC50
[8] = p-ERK, 2 hours of cell treatment, Tables 2.1 and 2.2, read-out: IC50

Sequence of SHP2^E76A protein (Q06124 whole entry E76A): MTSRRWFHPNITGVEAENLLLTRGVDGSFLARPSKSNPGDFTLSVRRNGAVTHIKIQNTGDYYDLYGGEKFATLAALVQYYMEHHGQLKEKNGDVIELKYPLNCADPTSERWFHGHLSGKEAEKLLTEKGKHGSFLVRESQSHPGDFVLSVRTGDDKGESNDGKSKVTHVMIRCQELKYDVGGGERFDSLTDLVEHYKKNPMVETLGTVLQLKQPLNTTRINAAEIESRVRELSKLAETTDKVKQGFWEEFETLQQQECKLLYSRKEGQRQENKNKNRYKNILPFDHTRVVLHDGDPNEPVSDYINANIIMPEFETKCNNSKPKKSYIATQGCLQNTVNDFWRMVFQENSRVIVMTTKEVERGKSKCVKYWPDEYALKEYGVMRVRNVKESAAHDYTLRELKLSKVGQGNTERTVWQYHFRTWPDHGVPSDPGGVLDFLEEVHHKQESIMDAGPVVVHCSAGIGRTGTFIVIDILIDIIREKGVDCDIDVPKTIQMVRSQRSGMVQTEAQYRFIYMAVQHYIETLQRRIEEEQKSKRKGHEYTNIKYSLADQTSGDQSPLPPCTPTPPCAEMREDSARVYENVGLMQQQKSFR

SMILES | IC50 [1, 4] | IC50 [1, 5] | IC50 [2, 6] | IC50 [2, 7] | IC50 ([3]; Table 4, read-out: p-ERK IC50) | IC50 [3, 8]
CC1C[C@@H](N)C2(CCN(c3ncc(Sc4ccnc(Cl)c4Cl)c4nccn34)CC2)C1 (stereo partly drawn) [(1R)-8-(8-((2,3-dichloropyridin-4-yl)thio)imidazo[1,2-c]pyrimidin-5-yl)-3-methyl-8-azaspiro[4.5]decan-1-amine] | < 100 nM | 8 nM | < 100 nM | 28 nM | 34 nM | < 100 nM
CC1C[C@@H](N)C2(CCN(c3ncc(Sc4ccnc(N)c4Cl)c4nccn34)CC2)C1 (stereo partly drawn) [(1R)-8-(8-((2-amino-3-chloropyridin-4-yl)thio)imidazo[1,2-c]pyrimidin-5-yl)-3-methyl-8-azaspiro[4.5]decan-1-amine] | < 100 nM | 32 nM | < 100 nM | 54 nM | 59 nM | < 100 nM
CC1C[C@@H](N)C2(CCN(c3ncc(Sc4cc(N)nc(Cl)c4Cl)c4nncn34)CC2)C1 (stereo partly drawn) [(1R)-8-(8-((6-amino-2,3-dichloropyridin-4-yl)thio)-[1,2,4]triazolo[4,3-c]pyrimidin-5-yl)-3-methyl-8-azaspiro[4.5]decan-1-amine] | < 100 nM | 2 nM | < 100 nM | 17 nM | 47 nM | < 100 nM
C[C@@H]1OCC2(CCN(c3ncc(Sc4cccc(Cl)c4Cl)c4nccn34)CC2)[C@@H]1N [(3S,4S)-8-(8-((2,3-dichlorophenyl)thio)imidazo[1,2-c]pyrimidin-5-yl)-3-methyl-2-oxa-8-azaspiro[4.5]decan-4-amine] | < 100 nM | 8 nM | < 100 nM | 68 nM | 103 nM | 100 to 1000 nM
C[C@@H]1OCC2(CCN(c3ncc(Sc4ccnc(Cl)c4Cl)c4nncn34)CC2)[C@@H]1N [(3S,4S)-8-(8-((2,3-dichloropyridin-4-yl)thio)-[1,2,4]triazolo[4,3-c]pyrimidin-5-yl)-3-methyl-2-oxa-8-azaspiro[4.5]decan-4-amine] | < 100 nM | 5 nM | – | 133 nM | 161 nM | –
C[C@@H]1OCC2(CCN(c3ncc(Sc4ccnc(Cl)c4Cl)c4nccn34)CC2)[C@@H]1N [(3S,4S)-8-(8-((2,3-dichloropyridin-4-yl)thio)imidazo[1,2-c]pyrimidin-5-yl)-3-methyl-2-oxa-8-azaspiro[4.5]decan-4-amine] | < 100 nM | 5 nM | < 100 nM | 38 nM | 35 nM | < 100 nM
C[C@@H]1OCC2(CCN(c3ncc(Sc4ccnc(N)c4Cl)c4nccn34)CC2)[C@@H]1N [(3S,4S)-8-(8-((2-amino-3-chloropyridin-4-yl)thio)imidazo[1,2-c]pyrimidin-5-yl)-3-methyl-2-oxa-8-azaspiro[4.5]decan-4-amine] | < 100 nM | 20 nM | < 100 nM | 76 nM | 150 nM | 100 to 1000 nM
C[C@@H]1OCC2(CCN(c3ncc(Sc4cc(N)ncc4Cl)c4nccn34)CC2)[C@@H]1N [(3S,4S)-8-(8-((2-amino-5-chloro-pyridin-4-yl)thio)imidazo[1,2-c]pyrimidin-5-yl)-3-methyl-2-oxa-8-azaspiro[4.5]decan-4-amine] | – | 21 nM | – | 180 nM | 94 nM | < 100 nM
Cc1nccc(Sc2cnc(N3CCC4(CC3)CO[C@@H](C)[C@H]4N)n3cnnc23)c1Cl [(3S,4S)-8-(8-((3-chloro-2-methylpyridin-4-yl)thio)-[1,2,4]triazolo[4,3-c]pyrimidin-5-yl)-3-methyl-2-oxa-8-azaspiro[4.5]decan-4-amine] | < 100 nM | 17 nM | – | 277 nM | 369 nM | 100 to 1000 nM
Cc1nccc(Sc2cnc(N3CCC4(CC3)CO[C@@H](C)[C@H]4N)n3ccnc23)c1Cl [(3S,4S)-8-(8-((3-chloro-2-methylpyridin-4-yl)thio)imidazo[1,2-c]pyrimidin-5-yl)-3-methyl-2-oxa-8-azaspiro[4.5]decan-4-amine] | < 100 nM | 15 nM | < 100 nM | 50 nM | 19 nM | < 100 nM
C[C@@H]1OCC2(CCN(c3ncc(Sc4cc(N)nc(Cl)c4Cl)c4nccn34)CC2)[C@@H]1N [(3S,4S)-8-(8-((6-amino-2,3-dichloropyridin-4-yl)thio)imidazo[1,2-c]pyrimidin-5-yl)-3-methyl-2-oxa-8-azaspiro[4.5]decan-4-amine] | < 100 nM | 10 nM | < 100 nM | 50 nM | 47 nM | < 100 nM
Cc1nc(N)cc(Sc2cnc(N3CCC4(CC3)CO[C@@H](C)[C@H]4N)n3ccnc23)c1Cl [(3S,4S)-8-(8-((6-amino-3-chloro-2-methyl-pyridin-4-yl)thio)imidazo[1,2-c]pyrimidin-5-yl)-3-methyl-2-oxa-8-azaspiro[4.5]decan-4-amine] | < 100 nM | 16 nM | < 100 nM | 42 nM | 43 nM | < 100 nM
N[C@@H]1CCCCC12CCN(c1ncc(Sc3cccc(Cl)c3Cl)c3nncn13)CC2 [(R)-3-(8-((2,3-dichlorophenyl)thio)-[1,2,4]triazolo[4,3-c]pyrimidin-5-yl)-3-azaspiro[5.5]undecan-7-amine] | 100 to 1000 nM | – | 1000 to 10000 nM | – | – | 1000 to 10000 nM
N[C@@H]1CCC12CCN(c1ncc(Sc3cccc(Cl)c3Cl)c3nccn13)CC2 [(R)-7-(8-((2,3-dichlorophenyl)thio)imidazo[1,2-c]pyrimidin-5-yl)-7-azaspiro[3.5]nonan-1-amine] | 100 to 1000 nM | – | 100 to 1000 nM | – | – | 100 to 1000 nM
Cn1ccc2c(Sc3cnc(N4CCC5(CCC[C@H]5N)CC4)n4ccnc34)ccnc21 [(R)-8-(8-((1-methyl-1H-pyrrolo[2,3-b]pyridin-4-yl)thio)imidazo[1,2-c]pyrimidin-5-yl)-8-azaspiro[4.5]decan-1-amine] | < 100 nM | – | 100 to 1000 nM | – | – | 100 to 1000 nM
N[C@@H]1CC(F)(F)CC12CCN(c1ncc(Sc3cccc(Cl)c3Cl)c3nccn13)CC2 [(R)-8-(8-((2,3-dichlorophenyl)thio)imidazo[1,2-c]pyrimidin-5-yl)-3,3-difluoro-8-azaspiro[4.5]decan-1-amine] | < 100 nM | – | 100 to 1000 nM | – | – | 100 to 1000 nM
N[C@@H]1CCCC12CCN(c1ncc(Sc3cccc(Cl)c3Cl)c3nccn13)CC2 [(R)-8-(8-((2,3-dichlorophenyl)thio)imidazo[1,2-c]pyrimidin-5-yl)-8-azaspiro[4.5]decan-1-amine] | < 100 nM | – | 100 to 1000 nM | – | – | 100 to 1000 nM
N[C@@H]1CCCC12CCN(c1ncc(Sc3ccnc(Cl)c3Cl)c3nncn13)CC2 [(R)-8-(8-((2,3-dichloropyridin-4-yl)thio)-[1,2,4]triazolo[4,3-c]pyrimidin-5-yl)-8-azaspiro[4.5]decan-1-amine] | < 100 nM | – | 100 to 1000 nM | – | – | 1000 to 10000 nM
N[C@@H]1CCCC12CCN(c1ncc(Sc3ccnc(Cl)c3Cl)c3nccn13)CC2 [(R)-8-(8-((2,3-dichloropyridin-4-yl)thio)imidazo[1,2-c]pyrimidin-5-yl)-8-azaspiro[4.5]decan-1-amine] | < 100 nM | 57 nM | < 100 nM | 42 nM | 159 nM | 100 to 1000 nM
N[C@@H]1CCCC12CCN(c1ncc(Sc3cccnc3C(F)(F)F)c3nncn13)CC2 [(R)-8-(8-((2-(trifluoromethyl)pyridin-3-yl)thio)-[1,2,4]triazolo[4,3-c]pyrimidin-5-yl)-8-azaspiro[4.5]decan-1-amine] | 100 to 1000 nM | – | 100 to 1000 nM | – | – | 1000 to 10000 nM
N[C@@H]1CCCC12CCN(c1ncc(Sc3cccnc3C(F)(F)F)c3nccn13)CC2 [(R)-8-(8-((2-(trifluoromethyl)pyridin-3-yl)thio)imidazo[1,2-c]pyrimidin-5-yl)-8-azaspiro[4.5]decan-1-amine] | < 100 nM | – | 100 to 1000 nM | – | – | 100 to 1000 nM
Nc1nccc(Sc2cnc(N3CCC4(CCC[C@H]4N)CC3)n3ncnc23)c1Cl [(R)-8-(8-((2-amino-3-chloropyridin-4-yl)thio)-[1,2,4]triazolo[1,5-c]pyrimidin-5-yl)-8-azaspiro[4.5]decan-1-amine] | 100 to 1000 nM | – | 100 to 1000 nM | – | – | 1000 to 10000 nM

Reference: patent publication US11498930B2 (BLUERAY THERAPEUTICS (SHANGHAI) CO., LTD., priority 2018, dated 2022)
